This note sets out measurements from patent US12145914B2, “Compound having oxadiazole and pharmaceutical composition containing the same” (SK BIOPHARMACEUTICALS CO., LTD., priority 2018, dated 2024).

The test system of this assay is focal onset seizures induced by electrostimulation of 44 mA, 6 Hz, 3 sec in ICR mouse. In words: 6 Hz method for screening anticonvulsants (6 Hz, 44 mA electrostimulation). Type of assay: in vivo. The settings on record: male ICR mice, intraperitoneal (ip), electrostimulation 44 mA, 3 sec to the eye, number of non-seizure animals/number of animals used. The source says:
The utility of the compounds according to the present invention as an anticonvulsant agent has been investigated by the 6 Hz method, which has been well established as pharmacological screening methods of convulsant agents for focal onset seizures. The procedure of the 6 Hz method for screening anticonvulsant was as follows:
1) Preparation of Experimental Animals
Male ICR mice are purchased from Orient Bio, Inc. of Korea, and are stored and managed according to laboratory animal management standards of the Institutional Animal Care and Use Committee (IACUC) by putting the same in a wire net cage under an environment in which an ambient temperature of 19 to 25° C., 40 to 60% relative humidity and 12 hour periods of light/dark were auto-controlled, and water was freely taken. After stabilization for a week, mice with a body weight of 18 to 23 g were used in the experiment.
2) Evaluation of the Anticonvulsant Effect of a Compound
5% Tetracaine (Sigma) was added to both eyes to provide a local anesthetic effect at 5 to 10 minutes before the period of electrical stimulation at the animal ICR mouse. The compounds to be tested were dissolved in distilled water in which 30% polyethylene glycol 300+5% dimethylsulfoxide+5% Cremophor was dissolved and administered intraperitoneally (ip) to the animal at a dosage volume of 10 mL/kg. Then, electrostimulation of 44 mA, 6 Hz, and 3 sec was applied to the eye to induce focus-generating seizures. After the electrical stimulation, the presence of seizures due to drug effects was confirmed, and the ratio of animals showing no seizures was expressed as a protection rate (the number of non-seizure animals/the number of animals used in experiments=protection rate). […]

For `Cc1nnc(CC(O)c2cccc(-c3ccc(OC(F)(F)F)cc3)c2)o1` (centres unmarked) [Example 59, 2-(5-methyl-1,3,4-oxadiazol-2-yl)-1-[3-[4-(trifluoromethoxy)phenyl]phenyl]ethanol], the “6 Hz, 44 mA protection rate” value is reported as “++ (0.6 to 0.8 are scored as ‘++’)”. In the case of `Cc1nnc(CC(O)c2cccc(-c3ccc(Cl)cc3)c2)o1` (centres unmarked) [Example 65, 1-[3-(4-chlorophenyl)phenyl]-2-(5-methyl-1,3,4-oxadiazol-2-yl)ethanol] it was “++ (0.6 to 0.8 are scored as ‘++’)”; in that of `Cc1nnc(CC(OC(N)=O)c2cccc(-c3ccc(F)cc3)c2)o1` (centres unmarked) [Example 72, [1-[3-(4-fluorophenyl)phenyl]-2-(5-methyl-1,3,4-oxadiazol-2-yl)ethyl] carbamate], “+ (0.2 to 0.6 are scored as ‘+’)”. With `Cc1nnc(CC(OC(N)=O)c2cccc(-c3ccc(Cl)cc3)c2)o1` (centres unmarked) [Example 75, [1-[3-(4-chlorophenyl)phenyl]-2-(5-methyl-1,3,4-oxadiazole-2-yl)ethyl] carbamate], the “6 Hz, 44 mA protection rate” value is recorded as “+ (0.2 to 0.6 are scored as ‘+’)”. Regarding `Cc1nnc(CC(OC(N)=O)c2cccc(-c3ccc(OC(F)(F)F)cc3)c2)o1` (centres unmarked) [Example 78, [1-[3-[4-(trifluoromethoxy)phenyl]phenyl]-2-(5-methyl-1,3,4-oxadiazol-2-yl)ethyl] carbamate], the “6 Hz, 44 mA protection rate” value is reported as “++ (0.6 to 0.8 are scored as ‘++’)”.

As for `Nc1nnc(-c2cccc(Cl)c2Cl)c(N)n1` [Lamotrigine, reference compound], the “6 Hz, 44 mA protection rate” value is “− (the protection rates 0 to 0.2 are scored as ‘−’)”. The value for `CC[C@@H](C(N)=O)N1CCCC1=O` [Levitiracetam, (S)-α-ethyl-2-oxo-1-pyrrolidine acetamide, reference compound] was “− (the protection rates 0 to 0.2 are scored as ‘−’)”; that for `CC1(C)O[C@@H]2[C@@H](CO[C@@]3(COS(N)(=O)=O)OC(C)(C)O[C@@H]23)O1` [Topiramate, reference compound] was “− (the protection rates 0 to 0.2 are scored as ‘−’)”.
